{"source": "patent US20080124338A1", "about": "“METHODS FOR TREATMENT OF INFLAMMATORY DISEASE AND CHLAMYDIA INFECTIOUS DISEASE” (The Scripps Research Institute, priority 2006, published 2008)", "molecules": {"B1": {"name": "p40: N-terminal p40 cleavage product of p65/RelA, amino acid residues 1-351 of SEQ ID NO:1 (protein, listed as Homo Sapiens)", "chain": "MDELFPLIFPAEPAQASGPYVEIIEQPKQRGMRFRYKCEGRSAGSIPGERSTDTTKTHPTIKINGYTGPGTVRISLVTKDPPHRPHPHELVGKDCRDGFYEAELCPDRCIHSFQNLGIQCVKKRDLEQAISQRIQTNNNPFQVPIEEQRGDYDLNAVRLCFQVTVRDPSGRPLRLPPVLPHPIFDNRAPNTAELKICRVNRNSGSCLGGDEIFLLCDKVQKEDIEVYFTGPGWEARGSFSQADVHRQVAIVFRTPPYADPSLQAPVRVSMQLRRPSDRELSEPMEFQYLPDTDDRHRIEEKRKRTYETFKSIMKKSPFSGPTDPRPPPRRIAVPSRSSASVPKPAPQPYPF", "modifications": "Myc tag"}, "B2": {"name": "CT858: chlamydial protease detected during an infection but not in purified EB (protein)", "chain": "MKMNRIWLLLLTFSSAIHSPVQGESLVCKNALQDLSFLEHLLQVKYAPKTWKEQYLGWDLVQSSVSAQQKLRTQENPSTSFCQQVLADFIGGLNDFHAGVTFFAIESAYLPYTVQKSSDGRFYFVDIMTFSSEIRVGDELLEVDGAPVQDVLATLYGSNHKGTAAEESAALRTLFSRMASLGHKVPSGRTTLKIRRPFGTTREVRVKWRYVPEGVGDLATIAPSIRAPQLQKSMRSFFPKKDDAFHRSSSLFYSPMVPHFWAELRNHYATSGLKSGYNIGSTDGFLPVIGPVIWESEGLFRAYISSVTDGDGKSHKVGFLRIPTYSWQDMEDFDPSGPPPWEEFAKIIQVFSSNTEALIIDQTNNPGGSVLYLYALLSMLTDRPLELPKHRMILTQDEVVDALDWLTLLENVDTNVESRLALGDNMEGYTVDLQVAEYLKSFGRQVLNCWSKGDIELSTPIPLFGFEKIHPHPRVQYSKPICVLINEQDFSCADFFPVVLKDNDRALIVGTRTAGAGGFVFNVQFPNRTGIKTCSLTGSLAVREHGAFIENIGVEPHIDLPFTANDIRYKGYSEYLDKVKKLVCQLINNDGTIILAEDGSF", "modifications": "left off: small tags and cut ends", "notes": "chlamydial protease detected during an infection but not in purified EB"}, "B3": {"name": "CT441: Chlamydia trachomatis tail-specific protease, SEQ ID NO:2 (protein, listed as Chlamydia trachomatis)", "chain": "MMRFARFCLLVLTLFPQLAFSAEPLRRQDVRKTVDKLVEHHIDTQQISPYILSRSLEDYVRSFDSHKAYLTQDEVFSHAFSEEATRPLFKQYQEDNFSSFKELDTCIQQSISRAREWRSSWLTDSIRVIQDAMSHTIEKKPSAWASSIEEVKQRQYDLLLSYASIYLEDAAKNRYQGKEHALVKLCIRQIENHENPYIGINDHGYRMSPEEEANSFHVRIIKSIAHSLDAHTAYFSQEEALSMRAQLEKGMCGIGVVLKEDIDGVVVKEVLAGGPADKTGSLRVGDIIYRVNGKNIENTPFPGVLDSLRGSPGSSVTLDIHRQNNDHVIQLRREKILLDSRRVDVSYEPYGNGIIGKITLHSFYEGENQVSSEQDLRKAIRELQEKNLLGLVLDIRENTGGFLSQAIKVSGLFLTNGVVVVSRYADGSVKRYRTISPQKFYDGPLAVLVSKSSASAAEIVAQTLQDYGVALIVGDQQTYGKGTIQHQTITGSNSQEDFFKVTVGRYYSPSGKSTQLEGVKSDIVIPSRYAEDKLGERFLEYALPADQYENVINDNLGDLDINIRPWFQKYYSPHLQKPELVWREMLPQLAHNSQERLEKNKNFEIFVQHLKKTNKQDRSFGSNDLQMEESVNIVKDMILLKSIS"}}, "key": {"[1]": {"tested_on": "proteasomal degradation", "test": "Detection of p22 cleavage product in cells treated with MG-132", "type": "cell-based", "details": "Chlamydia-infected cells treated with MG-132; data not shown", "from_the_text": "The cleavage of p65 was confirmed by the detection of a 22 kDa fragment with a C-terminus specific antibody against p65 (FIG. 1C). […] The 40 kDa fragment was further characterized with MALDI proteomics. Thus, 293T cells, transfected for GST-p65 protein expression, were infected with LGV2 for 28 hr. After purification, the cleavage product was subjected to trypsin digestion followed by MALDI TOF identification. Seven proteolytic fragments were detected, which covered the N-terminal GST tag and the RHD region of p65 (supplemental data).\nWestern blots. Except as noted, extracts were prepared by lysis of cells with a buffer containing 143 mM NaCl, 50 mM Tris-HCl (pH 7.5), 1 mM DTT, 1% NP-40, 0.1% SDS and protease inhibitors (Roche). Soluble proteins were separated by SDS-PAGE or Tris-Glycine gels (Novex). Blots were probed with specific antibodies. Horseradish peroxidase conjugated secondary antibodies (Sigma) and ECL reagent kit (Pierce) were used for detection."}, "[2]": {"tested_on": "Chlamydia trachomatis LGV2", "test": "p65 cleavage in Chlamydia-infected cells treated with antibiotics (immunoblotting)", "type": "cell-based", "details": "rifampin 0.1 μg/ml, chloramphenicol 60 μg/ml, penicillin G 100 μg/ml, FIG. 1E", "method": "A. Hela 229 cells were infected with Chlamydia trachomatis LGV2 at 1 IFU/cell for varying times, or with invasive (wt) or invasion-defective (mut) Salmonella typhimurium for 2 hr. IκBα expression and degradation were detected by immunoblotting analyses. TNFα (10 ng/ml) was used as a positive control. B. Hela 229 cells were infected with LGV2 at 1 IFU/cell for 2, 16 and 24 hr. The cytosolic (C) and nuclear (N) fractions were separated and redistribution of p65/RelA was detected by immunoblotting analysis. The expression of lamin A and β-tubulin were used as loading controls for nuclear and cytosolic fractions, respectively. C. Whole cell lysates from Chlamydia-infected cells were separated by SDS-PAGE and cleavage of p65 was detected with an N- or C-terminus specific antibody against p65. D. Selective cleavage of p65 by Chlamydia infection. The expression of NF-κB pathway signaling molecules in Chlamydia-infected and non-infected control cells was determined by immunoblotting analysis. E. Inhibition of Chlamydia growth blocks p65 cleavage. The infected cells were treated with rifampin (Rif, 0.1 μg/ml) or chloramphenicol (Chl, 60 μg/ml), reagents that inhibit Chlamydia growth by blocking transcription or translation, respectively. […] The expression of β-tubulin or Erk2/MAPK was used as loading controls. All experiments were performed at least 3 times.\nInfection assays. […]"}, "[3]": {"tested_on": "p65 cleavage activity of Chlamydia", "test": "In vitro p65 cleavage assay with solubilized chlamydial EB proteins", "type": "biochemical", "details": "37° C. for 60 min; inhibitor added 30 min prior to p65; EDTA 5 mM, lactacystin 10 μM; FIG. 2C", "experimental": "Purified Chlamydia EB was solubilized with a buffer containing 1% NP-40. […] The graph represents the rates of p65 disappearance and p40 appearance in the same reaction. C. […] In parallel experiments, protease inhibitors were included in the in vitro p65 cleavage assay. […] Lane 4: Roche protease inhibitor cocktail at 10×; Lane 5: heat-inactivated EB; Lane 6: EDTA at 5 mM; Lane 7: Lactacystin at 10 μM; Lane 8: MG132 at 20 μM; Lane 9: TPCK at 20 μM; and Lane 10: TLCK at 20 μM. The presence of the chlamydial major outer membrane protein (MOMP) was used as a measure of EB protein input (lower panel).\nIn vitro p65 cleavage assays. Gradient purified chlamydial EB were solubilized with Tris-buffered saline, supplemented with 1% NP-40. The soluble proteins were collected and used for p65 cleavage assays. […] For inhibition assays, an inhibitor was added 30 min prior to the addition of p65 protein. All assays were performed at 37° C. for 60 min or as otherwise indicated."}, "[4]": {"tested_on": "IκBα", "test": "IκBα degradation in Hela 229 cells (immunoblotting)", "type": "cell-based", "details": "TNFα 10 ng/ml, positive control, FIG. 1A", "from_the_text": "The host inflammatory response to bacterial infection or proinflammatory cytokine and LPS stimulation is mediated by NF-κB activity, which is regulated by the selective degradation of IκB proteins. Karin and Ben-Neriah, Annu. Rev. Immunol 18: 621, 2000; Richmond, Nat. Rev. Immunol 2: 664, 2002. To investigate whether Chlamydia targeted the NF-κB pathway to interfere with host inflammatory response, we first examined the integrity of IκBα, a regulatory molecule of NF-κB activation. To this end, monolayers of Hela 229 cells were infected with C. trachomatis LGV2 at 1 inclusion forming unit per cell (1 IFU/cell) for varying time points. Lad et al., J Immunol 174: 7186, 2005. […]\nA. Hela 229 cells were infected with Chlamydia trachomatis LGV2 at 1 IFU/cell for varying times, or with invasive (wt) or invasion-defective (mut) Salmonella typhimurium for 2 hr. IκBα expression and degradation were detected by immunoblotting analyses. […] The cytosolic (C) and nuclear (N) fractions were separated and redistribution of p65/RelA was detected by immunoblotting analysis. […] Whole cell lysates from Chlamydia-infected cells were separated by SDS-PAGE and cleavage of p65 was detected with an N- or C-terminus specific antibody against p65. […] The expression of NF-κB pathway signaling molecules in Chlamydia-infected and non-infected control cells was determined by immunoblotting analysis. […]"}, "[5]": {"tested_on": "NF-κB", "test": "pIL8-luciferase reporter gene assay in 293T cells", "type": "cell-based, human", "details": "TNFα 10 ng/ml, FIG. 3C, 3D", "method": "(§1) We therefore investigated whether expression of CT441 interfered with NF-κB signal transduction. To this end, 293T cells were transfected with pIL8-luciferase (Kim et al., Cancer Res 65: 8784, 2005) and a plasmid for CT441 expression. The cells were then treated with TNFα to induce luciferase expression. In parallel experiments, we also included a mouse cell line for control purposes since murine p65 is resistant to cleavage by Chlamydia infection. […] The p40 cleavage product (amino acid residues 1-351) was then investigated for its inhibitory effect on TNFα-induced NF-κB activation.\n(§2) A. Putative chlamydial proteases were expressed as N-terminal HA-tagged proteins in 293T cells and screened for their ability to cleave p65. […] 441, 494, 823 and 858 represent chlamydial CT441, CT494, CT823, and CT858, respectively. […] Monolayers of 293T or NIH3T3 cells were co-transfected with pIL8-Luc (Kim et al., Cancer Res 65: 8784, 2005) and a plasmid for the expression of chlamydial protease CT441 or the p40 cleavage product of p65. pSV40-RL was included as an internal control for transfection reactions. The cells were treated with TNFα (10 ng/ml) 18 hr post transfection to induce luciferase expression. Luciferase activities were determined with a Dual-Glo reagent kit (Promega) 18 hr after TNFα treatment. The ratio of firefly and Renilla luciferase activities (FL/RL) was plotted. […]"}, "[6]": {"tested_on": "p65", "test": "Expression of putative chlamydial proteases in 293T cells, cleavage of endogenous p65 (Western blot)", "type": "cell-based, human", "details": "N-terminal HA-tagged proteins expressed in 293T cells; FIG. 3A, 3B", "from_the_text": "The chlamydial genome encodes 16 proteases (Stephens et al., Science 282: 754, 1998), including four putative proteases that contain a leader sequence for periplasmic secretion and potential translocation by the chlamydial type III secretory system. The mature peptides of those putative proteases were therefore screened for their ability to cleave p65 after expression in 293T cells. […] CT441 encodes a tail-specific protease (Tsp) that is well conserved among Chlamydia species.\nas §2, with “plotted. All transfections were performed in duplicate and the data are presented as means +/− error.” for “plotted.”"}, "[7]": {"tested_on": "NF-κB", "test": "pIL8-luciferase reporter gene assay in NIH3T3 cells", "type": "cell-based, mouse", "details": "TNFα 10 ng/ml, FIG. 3C", "method": "as §1, §2"}}, "note": "“Also recorded” adds a separate entry of the source. Peptide text beside a SMILES is read from it. * marks the point of attachment. Cbz = O=C(OCc1ccccc1)*", "data": [{"molecule": "CC(C)C[C@@H](C=O)NC(=O)[C@H](CC(C)C)NC(=O)[C@H](CC(C)C)NC(=O)OCc1ccccc1", "note": "[MG-132] (Cbz-Leu-Leu-Leu-aldehyde)", "values": [{"measurement": "detection of p22", "setting": "[1]", "value": "Enhanced detection of p22"}]}, {"molecule": "O=C(N[C@H](CO)[C@H](O)c1ccc([N+](=O)[O-])cc1)C(Cl)Cl", "note": "[chloramphenicol]", "values": [{"measurement": "Chlamydia cleavage of p65", "setting": "[2]", "value": "blocked"}]}, {"molecule": "CC(=O)N[C@@H](CSC(=O)[C@]1([C@@H](O)C(C)C)NC(=O)[C@H](C)[C@@H]1O)C(=O)O", "note": "[lactacystin]", "values": [{"measurement": "p65 cleavage activity of Chlamydia (solubilized EB proteins)", "setting": "[3]", "value": "inhibited p65 cleavage activity"}]}, {"molecule": "CO[C@H]1/C=C/O[C@@]2(C)Oc3c(C)c(O)c4c(O)c(c(/C=N/N5CCN(C)CC5)c(O)c4c3C2=O)NC(=O)/C(C)=C\\C=C\\[C@H](C)[C@H](O)[C@@H](C)[C@@H](O)[C@@H](C)[C@H](OC(C)=O)[C@@H]1C", "note": "[rifampin]", "values": [{"measurement": "Chlamydia cleavage of p65", "setting": "[2]", "value": "blocked"}]}, {"molecule": "TNFα", "values": [{"measurement": "IκBα degradation", "setting": "[4]", "value": "caused IκBα degradation"}]}, {"molecule": "B1", "values": [{"measurement": "TNFα-induced luciferase activity (NF-κB activation)", "setting": "[5]", "value": "inhibited luciferase expression; also recorded: inhibited NF-κB activity"}]}, {"molecule": "B2", "values": [{"measurement": "p65 cleavage after expression in 293T cells", "setting": "[6]", "value": "did not exhibit p65 cleavage activity"}]}, {"molecule": "B3", "values": [{"measurement": "TNFα-induced luciferase expression", "setting": "[7]", "value": "showed no effect"}, {"measurement": "p65 cleavage after expression in 293T cells", "setting": "[6]", "value": "caused p65 cleavage; also recorded: resulted in selective cleavage of p65"}, {"measurement": "TNFα-induced luciferase activity (NF-κB activation)", "setting": "[5]", "value": "inhibited TNFα-induced luciferase activity; also recorded: inhibited NF-κB activity"}]}]}
